Assay results taken from patent US7601687B2, “Mechanism for identifying drugs for the treatment of type II diabetes” (BioCrine AB, priority 2006, dated 2009).

Legend:
[1] = system: βGK mRNA; experiment: βGK mRNA steady-state levels (comparative RT-PCR) in cultured pancreatic islets / insulin-producing cells; assay type: cell-based, rat
Method: Insulin-producing HIT-T15 cells were obtained from ATCC. HIT cells were reported to show glucose responsiveness at subphysiological concentrations between 0.1 and 2 mM (Sharma et al., 1995). HIT cells were grown in RPMI 1640 medium supplemented with 100 units/ml penicillin, 100 μg/ml streptomycin, 2 mM glutamine and 10% fetal calf serum at 5% CO2 and 37° C. Pancreatic islets were isolated from normally fed male Wistar rats and from mice by collagenase digestion. Isolated islets were incubated overnight at 5% CO2 and 37° C. in RPMI 1640 medium, supplemented as described above. Transfection of HIT-T15 and islet cells was performed overnight by the lipofectamine technique in RPMI 1640 medium, without serum and antibiotics. For on-line monitoring, cells were grown and transfected on 24-mm glass coverslips. Following transfection, HIT cells were cultured for 12-18 h in RPMI 1640 medium containing 0.1 mM glucose, 10% fetal calf serum and supplemented as above. Before stimulation, islets and islet cells were incubated for 2 h in RPMI 1640 medium, supplemented as above but containing 3 mM glucose. All expression constructs were prepared using the Qiagen Plasmid Maxi Kit (Qiagen), except those used to produce the adenoviruses which where purified by ultracentrifugation via a CsCI-gradient (as described in Sambrook et al, 1989).
All experiments were performed in RPMI 1640 medium, supplemented as above. Protein kinase inhibitors, antibodies or nifedipine were added to the culture medium 30 min prior to stimulation and were kept in the medium throughout stimulation. After stimulation islets, islet cells and HIT cells were cultured further at substimulatory glucose concentrations (0.1 mM for HIT cells and 3 mM for islets and islet cells). For RNA-analysis, islets and cells were harvested 60 min after start of stimulation, if not indicated otherwise. For analysis of protein kinase activities or tyrosine phosphorylation, cells were harvested immediately following stimulation.
RNA Analysis Levels of βGK mRNA were analyzed by RNase-protection assays and comparative RT-PCR. […] Quantification of the protected complexes was performed by phosphorimaging. […] Levels of μGK mRNA were analyzed by RT-PCR using primers 5′-[…]-3′(SEQ ID NO: 1) and 5′-[…]-3′(SEQ ID NO: 2) for characterizing μGK mRNA in HIT cells and primers 5′-[…]-3′(SEQ ID NO: 3) and 5′-[…]-3′(SEQ ID NO: 4) for μGK mRNA in rat and mouse pancreatic islets and islet cells. Levels of μ-actin mRNA were analyzed by RT-PCR using primers 5′-[…]-3′(SEQ ID NO: 5) and 5′-[…]-3′(SEQ ID NO: 6). […] PCR products were separated on a 6% polyacrylamide sequencing gel and analyzed by phosphorimaging. […]

[2] = system: rat insulin-I promoter; experiment: Insulin promoter-driven DsRed expression in co-transfected human islet cells; assay type: cell-based
Method: Data are presented as the ratio of fluorescence obtained at minutes 240 and 60 and represent mean values ±S.E. (n=11).
Detection of fluorescence by digital imaging fluorescence microscopy was performed as described previously (Leibiger et al., 1998a; Leibiger et al., 1998b). Briefly, transfected cells were grown on 24-mm glass coverslips. After stimulation the coverslips were placed into a perifusion chamber which was mounted on an inverted microscope (Zeiss Axiovert 135TV). Temperature was kept at 37° C. and the cells were perfused with RPMI 1640 medium. The objective lens used was a Zeiss-Fluar ×40/1.30 oil Imm Korr. Fluorescence imaging was performed with a cooled charged-coupled device camera (CH250 with KAF 1400, Photometrics, Tucson, Ariz.) connected to an imaging system (Inovision) with fluorescence excitation from a SPEX fluorolog-2 CM1T11I spectrofluorometer (Spex Industries). […]
On-line monitoring was initiated 60 min following the start of stimulation and the 60-min value of GFP- or DsRed-fluorescence was set to 1.0. Cells to be monitored were chosen randomly at minute 60 from six fields of vision and fluorescence was monitored up to minute 240. By overlaying the fluorescence and phase-contrast images, the position of cells on the coverslip could be checked. Fluorescence intensity was calculated by using the ISee-software for UNIX (Inovision Corporation).

Row | Substance | exogenous insulin sufficient to evoke βGK mRNA levels ([1]; pancreatic islets, fully supplemented culture medium, substimulatory glucose) [μU insulin per ml] | insulin promoter-driven DsRed expression upon insulin stimulation ([2]; 5 mU/ml insulin for 5 min, sub-stimulatory glucose) | effect of inhibitor on insulin-stimulated βGK mRNA steady-state levels ([1]; 5 mU/ml insulin, 400 nM AC, FIG. 5B) | effect of inhibitor on insulin-stimulated insulin gene expression ([2]; 400 nM AC, 10 nM rapamycin, low concentrations: 50 nM wortmannin, 25 μM LY 294002 (FIG. 15))
1 | insulin | 50 | up-regulation | – | –
2 | autocamtide-2 related inhibitory peptide | – | – | altered neither | sensitive
